Test system: Nodal
Assay: Nodal expression in C8161 cells (Western blot, real time RT-PCR)
Type: cell-based, human
Conditions: anti-Nodal Morpholino
Procedure: A determination of the effects of H9 CMTX on Nodal expression in metastatic melanoma (C8161) and breast carcinoma (MDA-MB-231) cells was undertaken. […] Exposure to H9 CMTX similarly abrogates Nodal mRNA expression in the melanoma and breast carcinoma cells (FIG. 9C).
Protein lysates were prepared and quantified as previously described in Hess et al., 2001, Cancer Res. 61:3250-3255. Equal amounts of protein were separated by SDS-polyacrylamide gel electrophoresis under reducing conditions, and the resolved proteins were transferred onto Immobilon-P membranes (Millipore Corp., Bedford, Mass.). Membranes were blocked in 1% TBS, 0.1% Tween 20 (TBS-T) and 5% dry milk powder or 3% gelatin (for Nodal Westerns). Blots were incubated with anti-Nodal or anti-Lefty antibodies (Polyclonal rabbit anti-Nodal (H-110) 1:500 Santa Cruz Biotechnology, Santa Cruz, Calif.; Polyclonal goat anti-Lefty 1:500 R&D Systems, Minneapolis, Minn.), washed in TBS-T, and incubated with the appropriate horseradish peroxidase-labeled secondary antibody. Secondary antibodies were detected by enhanced chemiluminescence (Super Signal; Pierce, Rockford, Ill.) and exposure to autoradiography film (Molecular Technologies, St Louis, Mo.). Nodal protein was detected as two major bands at ˜48 and ˜35 kDa representing precursor and pro-Nodal respectively. Nodal often appeared as multiple bands, likely due to degradation of protein modifications. All experiments were done at least three times.
The derivation and phenotypic characteristics of the human melanoma cell lines have been previously described. Seftor, et. al., 2002, Clin. Experim. Metastas. 19:233-246; Seftor, et. al., 2005 Cancer Res. 65:10164-10169. The melanoma cell lines are maintained in RPMI 1640 medium (Invitrogen) supplemented with 10% fetal bovine serum (FBS, Gemini Bioproducts) and 0.1% gentamycin sulfate with the exception of C81-61 cells which are maintained in Ham's FIO medium supplemented with 15% FBS, 1X Mito+ (BD Bioscience) and gentamycin sulfate. […] The cultures are determined to be free of mycoplasma contamination using a PCR-based assay (Roche). […]

Substance: MO^Nodal: FITC-conjugated anti-sense Morpholino to Nodal, 5′-AAGCAGCACCTCCAGCCCTTATATC-3′ [SEQ ID NO: 20] (all phosphorodiamidate morpholino (PMO); FITC conjugated, position not given here)
- Nodal expression: down-regulation of Nodal
